2 compounds from patent US20120129730A1, “GENERATION OF COMPOUND LIBRARIES UTILIZING MOLECULAR IMPRINTS INCLUDING A DOUBLE OR ANTI-IDIOTYPIC APPROACH” (KLAUS MOSBACH, priority 2001, published 2012) can be followed below.

This assay deals with T1, tissue kallikrein (UniProt P00752).
T1 sequence (P00752 1-246): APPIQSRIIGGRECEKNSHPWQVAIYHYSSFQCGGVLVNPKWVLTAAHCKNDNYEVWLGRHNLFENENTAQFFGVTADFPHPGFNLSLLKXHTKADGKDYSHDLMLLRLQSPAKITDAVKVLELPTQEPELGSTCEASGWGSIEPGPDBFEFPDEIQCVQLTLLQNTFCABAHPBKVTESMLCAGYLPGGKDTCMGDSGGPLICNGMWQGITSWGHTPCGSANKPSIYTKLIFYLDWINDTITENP
The assay can be described thus: Determination of inhibition constants (Ki) for tissue kallikrein. Type of assay: biochemical. Particulars: for Ki: literature method of Burton and Lowe, read-out: Ki, inhibition constant for tissue kallikrein. On the procedure: Determination of Inhibition Constants (Ki) for Tissue Kallikrein
Inhibition constants of compounds 1, 2 and 3 for tissue kallikrein are determined according to the literature method described by Burton and Lowe. ^7 The results are listed in Table 4.

On to `N=C(N)c1ccc(Nc2nc(Cl)nc(NCc3ccccc3)n2)cc1` [Compound 3], for which the Ki amounted to 5.2 µM. For the same compound, for the setting “tissue kallikrein inhibition, comparison in words”, the “inhibition efficacy compared with the original template (1)” value is reported as “approximately the same inhibition efficacy as that of the original template (1)”.

Regarding `N=C(N)c1ccc(Nc2nc(Cl)nc(Cl)n2)cc1` [2-(4-amidinophenylamino)-4,6-dichloro-s-triazine, reference compound], the Ki was above 100 µM.

A word on the Ki: it is the dissociation constant of the complex between target and ligand, obtained from inhibition or displacement.
